# Source: patent US20240254140A1, “COMPOUNDS AND THEIR USE IN THE TREATMENT OF BACTERIAL INFECTION” (Hoffmann-La Roche Inc., priority 2021, published 2024)
# System: Escherichia coli ATCC 25922
# Assay: Minimal Inhibitory Concentration (MIC) determination, broth microdilution
# Format: cell-based
# Details: strain Escherichia coli ATCC 25922, broth microdilution per CLSI M07-A10, 18-24 hours at 35±2° C., lowest concentration for complete growth inhibition; for MIC: ATCC25922
# Experimental: Minimal Inhibitory Concentration (MIC) Determination:
# The MIC of antibacterial compounds against multiple species and strains was determined using the broth microdilution method according to M07-A10 Clinical and Laboratory Standards Institute (CLSI) guidelines, using the appropriate broth medium. In short, the compound plates were prepared by dispensing 100 μL of each stock solution in the first well of a 96 well microtiter plate (MTP) at a concentration 100-fold higher than the final concentration desired in broth. Eleven serial 2-fold dilutions of the highest concentration were made in DMSO for new compounds and in water (or appropriate solution) for reference compounds [2]. 1 μL of each well was transferred in a new MTP, which served as the test plate by subsequent inoculation. This bacterial suspension was prepared from strains that were first sub-cultured on agar plates and incubated for 18-24 hours as appropriate. Following incubation, the inoculum was prepared from isolated colonies and adjusted to 0.5 McFarland turbidity standard (1 to 2×10^8 Colony Forming Units (CFU)/mL) in 0.9% saline. The bacterial suspension was then diluted 1:200 in appropriate sterile medium and within 15 minutes 100 μL/well were dispensed. Negative controls (lack of bacterial cells) and growth control wells (lack of compound) were included in all plates. MTPs were incubated for 18-24 hours at 35±2° C. in ambient air. The MIC value of each compound, expressed as μg/mL, was determined as the lowest concentration required for complete growth inhibition (no visible growth). • [1] CLSI (2015) Methods for dilution antimicrobial susceptibility tests for bacteria that grow aerobically; Approved Standard, Tenth Edition. CLSI Document M7-A10 (ISBN 1-56238-987-4). Wayne, PA: Clinical and Laboratory Standards Institute, 19087, USA. • [2] CLSI (2017) Performance Standards for Antimicrobial Susceptibility Testing; Twenty-Fifth Informational Supplement. CLSI Document M100-S27, CLSI, Wayne, Pennsylvania 19087, USA.
# Table 1 provides the Minimal Inhibitory Concentrations (MIC) in micrograms per millilitre of the compounds of present invention obtained against the strain Escherichia coli ATCC 25922.
SMILES,MIC [µg/mL],Escherichia coli growth inhibition MIC [µg/mL]
CC(C)(O)C(=O)Nc1cc(C#N)c2c(c1)CC(CNCCC1CN(c3cnc4c(n3)NC(=O)CO4)C(=O)O1)C2 (stereo not shown) [Example 20],0.5,–
"N#Cc1cc(NC(=O)[C@@H]2C[C@@H](O)CN2)cc2c1CC(CN1CCC3(CC1)CN(c1cnc4c(n1)NC(=O)CO4)C(=O)O3)C2 (stereo partly drawn) [Example 59, (2S,4R)—N-[7-cyano-2-[[2-oxo-3-(3-oxo-4H-pyrazino[2,3-b][1,4]oxazin-6-yl)-1-oxa-3,8-diazaspiro[4.5]decan-8-yl]methyl]indan-5-yl]-4-hydroxy-pyrrolidine-2-carboxamide]",≤ 0.06,–
"CN(C)CC(=O)Nc1cc(F)c2c(c1)CC(CNCCC1CN(c3cnc4c(n3)NC(=O)CO4)C(=O)O1)C2 (stereo not shown) [Example 1, 2-(Dimethylamino)-N-[7-fluoro-2-[[2-[2-oxo-3-(3-oxo-4H-pyrazino[2,3-b][1,4]oxazin-6-yl)oxazolidin-5-yl]ethylamino]methyl]indan-5-yl]acetamide]",0.125,–
"O=C(CN1CCC1)Nc1cc(F)c2c(c1)CC(CNCCC1CN(c3cnc4c(n3)NC(=O)CO4)C(=O)O1)C2 (stereo not shown) [Example 8, 2-(azetidin-1-yl)-N-[7-fluoro-2-[2-[2-oxo-3-(3-oxo-4H-pyrazino[2,3-b][1,4]oxazin-6-yl)oxazolidin-5-yl]ethylaminomethyl]indan-5-yl]acetamide]",0.125,–
"C[C@H](C(=O)Nc1cc(F)c2c(c1)CC(CNCC[C@@H]1CN(c3cnc4c(n3)NC(=O)CO4)C(=O)O1)C2)N(C)C (stereo partly drawn) [Example 71, (2R)-2-(Dimethylamino)-N-[7-fluoro-2-[[2-[(5R)-2-oxo-3-(3-oxo-4H-pyrazino[2,3-b][1,4]oxazin-6-yl)oxazolidin-5-yl]ethylamino]methyl]indan-5-yl]propanamide]",–,0.125
C[C@H](C(=O)Nc1cc(F)c2c(c1F)CC(O)(CNCC1CN(c3cnc4c(n3)NC(=O)CO4)C(=O)O1)C2)N(C)C (stereo partly shown) [Example 30],1,–
"O=C1COc2ncc(N3CC4(CCN(CC5Cc6cc(NC(=O)[C@H]7C[C@@H](O)CN7)cc(F)c6C5)CC4)OC3=O)nc2N1 (stereo partly drawn) [Example 55, (2R,4R)—N-[7-Fluoro-2-[[2-oxo-3-(3-oxo-4H-pyrazino[2,3-b][1,4]oxazin-6-yl)-1-oxa-3,8-diazaspiro[4.5]decan-8-yl]methyl]indan-5-yl]-4-hydroxy-pyrrolidine-2-carboxamide]",0.125,–
"CN1CCC[C@H]1C(=O)Nc1cc(F)c2c(c1)CC(CNCCC1CN(c3cnc4c(n3)NC(=O)CO4)C(=O)O1)C2 (stereo partly drawn) [Example 10, (2S)-N-[7-fluoro-2-[[2-[2-oxo-3-(3-oxo-4H-pyrazino[2,3-b][1,4]oxazin-6-yl)oxazolidin-5-yl]ethylamino]methyl]indan-5-yl]-1-methyl-pyrrolidine-2-carboxamide]",0.125,–
"Cc1cc(NC(=O)[C@@H](C)N(C)C)nc2c1CC(CNCCC1CN(c3cnc4c(n3)NC(=O)CO4)C(=O)O1)C2 (stereo partly drawn) [Example 25, (2R)-2-(dimethylamino)-N-[4-methyl-6-[[2-[2-oxo-3-(3-oxo-4H-pyrazino[2,3-b][1,4]oxazin-6-yl)oxazolidin-5-yl]ethylamino]methyl]-6,7-dihydro-5H-cyclopenta[b]pyridin-2-yl]propanamide]",1,–
C[C@H](C(=O)Nc1ccc2c(c1F)CC(CNCCC1CN(c3cnc4c(n3)NC(=O)CO4)C(=O)O1)C2)N(C)C (stereo partly shown) [Example 23],0.5,–
"Cc1cc(NC(=O)CN2CCC2)nc2c1CC(CNCCC1CN(c3cnc4c(n3)NC(=O)CO4)C(=O)O1)C2 (stereo not shown) [Example 26, 2-(azetidin-1-yl)-N-[4-methyl-6-[[2-[2-oxo-3-(3-oxo-4H-pyrazino[2,3-b][1,4]oxazin-6-yl)oxazolidin-5-yl]ethylamino]methyl]-6,7-dihydro-5H-cyclopenta[b]pyridin-2-yl]acetamide]",0.5,–
CN(C)[C@]1(C(=O)Nc2cc(F)c3c(c2)CC(CNCCC2CN(c4cnc5c(n4)NC(=O)CO5)C(=O)O2)C3)CCOC1 (stereo partly shown) [Example 19],2,–
"CC(C)(O)C(=O)Nc1cc(F)c2c(c1)CC(CNCCC1CN(c3cnc4c(n3)NC(=O)CO4)C(=O)O1)C2 (stereo not shown) [Example 18, N-[7-fluoro-2-[[2-[2-oxo-3-(3-oxo-4H-pyrazino[2,3-b][1,4]oxazin-6-yl)oxazolidin-5-yl]ethylamino]methyl]indan-5-yl]-2-hydroxy-2-methyl-propanamide]",0.25,–
"O=C(CN1CCOCC1)Nc1cc(F)c2c(c1)CC(CNCCC1CN(c3cnc4c(n3)NC(=O)CO4)C(=O)O1)C2 (stereo not shown) [Example 5, N-[7-fluoro-2-[[2-[2-oxo-3-(3-oxo-4H-pyrazino[2,3-b][1,4]oxazin-6-yl)oxazolidin-5-yl]ethylamino]methyl]indan-5-yl]-2-morpholino-acetamide]",1,–
CN(C)C(C)(C)C(=O)Nc1cc(F)c2c(c1)CC(CNCCC1CN(c3cnc4c(n3)NC(=O)CO4)C(=O)O1)C2 (stereo not shown) [Example 3],0.25,–
"C[C@H](C(=O)Nc1cc(C#N)c2c(c1)CC(O)(CN1CCC3(CC1)CN(c1cnc4c(n1)NC(=O)CO4)C(=O)O3)C2)N(C)C (stereo partly drawn) [Example 35, (2R)-N-[7-cyano-2-hydroxy-2-[[2-oxo-3-(3-oxo-4H-pyrazino[2,3-b][1,4]oxazin-6-yl)-1-oxa-3,8-diazaspiro[4.5]decan-8-yl]methyl]indan-5-yl]-2-(dimethylamino)propanamide]",1,–
"CN(CCC1CN(c2cnc3c(n2)NC(=O)CO3)C(=O)O1)CC1Cc2cc(NC(=O)[C@@H]3C[C@@H](O)CN3)cc(F)c2C1 (stereo partly drawn) [Example 63, (2S,4R)—N-[7-Fluoro-2-[[methyl-[2-[2-oxo-3-(3-oxo-4H-pyrazino[2,3-b][1,4]oxazin-6-yl)oxazolidin-5-yl]ethyl]amino]methyl]indan-5-yl]-4-hydroxy-pyrrolidine-2-carboxamide]",0.25,–
"O=C(O)C(F)(F)F.O=C1COc2ncc(N3CC4(CCN(CC5Cc6cc(NC(=O)[C@H]7NCC[C@@H]7O)cc(F)c6C5)CC4)OC3=O)nc2N1 (stereo partly drawn) [Example 54, (2S,3S)—N-[7-Fluoro-2-[[2-oxo-3-(3-oxo-4H-pyrazino[2,3-b][1,4]oxazin-6-yl)-1-oxa-3,8-diazaspiro[4.5]decan-8-yl]methyl]indan-5-yl]-3-hydroxy-pyrrolidine-2-carboxamide; 2,2,2-trifluoroacetic Acid]",0.25,–
"O=C1COc2ncc(N3CC(CCNCC4Cc5cc(NC(=O)[C@@H]6CCCN6)cc(F)c5C4)OC3=O)nc2N1 (stereo partly drawn) [Example 36, (2S)—N-[7-Fluoro-2-[[2-[2-oxo-3-(3-oxo-4H-pyrazino[2,3-b][1,4]oxazin-6-yl)oxazolidin-5-yl]ethylamino]methyl]indan-5-yl]pyrrolidine-2-carboxamide]",0.25,–
"O=C1COc2ncc(N3CC(CCNCC4Cc5cc(NC(=O)[C@@H]6C[C@H](O)CN6)cc(F)c5C4)OC3=O)nc2N1 (stereo partly drawn) [Example 46, (2S,4S)-N-[7-fluoro-2-[[2-[2-oxo-3-(3-oxo-4H-pyrazino[2,3-b][1,4]oxazin-6-yl)oxazolidin-5-yl]ethylamino]methyl]indan-5-yl]-4-hydroxy-pyrrolidine-2-carboxamide]",0.5,–
CC(C(=O)Nc1cc(F)c2c(c1)CC(CNCC[C@@H]1CN(c3cnc4c(n3)NC(=O)CO4)C(=O)O1)C2)N1CCC1 (stereo partly shown) [Example 16],0.125,–
"O=C1COc2ncc(N3CC4(CCN(CC5Cc6c(F)cc(NC(=O)[C@@H]7C[C@@H](O)CN7)c(F)c6C5)CC4)OC3=O)nc2N1 (stereo partly drawn) [Example 52, (2S,4R)—N-[4,7-Difluoro-2-[[2-oxo-3-(3-oxo-4H-pyrazino[2,3-b][1,4]oxazin-6-yl)-1-oxa-3,8-diazaspiro[4.5]decan-8-yl]methyl]indan-5-yl]-4-hydroxy-pyrrolidine-2-carboxamide]",0.25,–
"N[C@]1(C(=O)Nc2cc(F)c3c(c2)CC(CNCCC2CN(c4cnc5c(n4)NC(=O)CO5)C(=O)O2)C3)CCOC1.O=C(O)C(F)(F)F (stereo partly drawn) [Example 40, (3R)-3-amino-N-[7-fluoro-2-[[2-[2-oxo-3-(3-oxo-4H-pyrazino[2,3-b][1,4]oxazin-6-yl)oxazolidin-5-yl]ethylamino]methyl]indan-5-yl]tetrahydrofuran-3-carboxamide; 2,2,2-trifluoroacetic acid]",0.25,–
"C[C@H](C(=O)Nc1cc(F)c2c(c1)CC(CNCCC1CN(c3cnc4c(n3)NC(=O)CO4)C(=O)O1)C2)N(C)C (stereo partly drawn) [Example 4, (2R)-2-(dimethylamino)-N-[7-fluoro-2-[[2-[2-oxo-3-(3-oxo-4H-pyrazino[2,3-b][1,4]oxazin-6-yl)oxazolidin-5-yl]ethylamino]methyl]indan-5-yl]propanamide]",0.125,–
"C[C@H](C(=O)Nc1cc(F)c2c(c1)C(O)C(CNCC[C@@H]1CN(c3cnc4c(n3)NC(=O)CO4)C(=O)O1)C2)N(C)C (stereo partly drawn) [Example 66, (2R)-2-(Dimethylamino)-N-[7-fluoro-3-hydroxy-2-[[2-[(5R)-2-oxo-3-(3-oxo-4H-pyrazino[2,3-b][1,4]oxazin-6-yl)oxazolidin-5-yl]ethylamino]methyl]indan-5-yl]propanamide]",4,–
